Test results taken from patent US12514909B2, “Lactate-protected hypoglycemia to treat glycolysis dependent pathological conditions, in particular cancer” (priority 2018, dated 2026).

Key:
[1] = Lactate-protected hypoglycemia (HG-HL) in anesthetized pig with extracorporeal HLa infusion; assay type: in vivo
Protocol: Then, after hyperlactatemia was established, an insulin bolus and continuous infusion of insulin were titrated to achieve a [Glu] of between 1.3 and 1.7 mmol/L (25 to 30 mg/dL). Once the HG (1.5 mmol/L) HL(8 mmol/L) state was achieved, this was maintained for 4 h. Then normoglycemia was allowed to return.
This example entails achievement and sustaining [Glu] at ˜1.5 mmol/L for 4 hours in a pig under a [Lac] of 8 mmol/L.
The preparation started the day before the intervention at 17:00. No food was given to the pig after this time.
On the morning of the intervention the pig ate a small fatty snack combined with 500 mg of metformin. The inhibitory action of metformin on gluconeogenesis is expected to start within 3 h.
A bolus of 0.03 mg/kg medetomidine, a bolus of 4 mg/kg tiletamine-zolazepam and a bolus of 2 to 2.5 mg/kg 1% propofol were delivered intravenously. After intubation, volume-controlled ventilation was started. The respiratory rate was adjusted to target etCO2of 35 to 45 mmHg and a tidal volume of 8 to 10 ml/kg. The tidal volume was later adjusted when required on etCO2, pCO2 and pH. Then a 2-lumen dialysis catheter was surgically placed into the internal jugular vein. An unfractionated heparin bolus of 5000 IU (200 IU/kg) was administered and CVVH was initiated with unfractionated heparin (400 IU/ml) at 1 ml/h, titrated to an activated clotting time (ACT) of 250 to 300 seconds.
Counter-response inhibition was achieved by subsequent intravenous delivery of labetalol (5 mg/ml) at 3 ml/h titrated to a relative heart rate reduction of 10/m, and an intravenous bolus of 25 μg octreotide (10 μg/ml), then the octreotide continuous infusion was proportionally adjusted to keep [Glu] in the desired hypoglycemic range.
Depending on the subsequent [Glu], insulin infusion rates were varied between 0 to 60 U/h. If necessary, an additional bolus dose of insulin was given at least 30 minutes after the initial delivery using the same criteria as described before.
Once both a [Glu] of 1.3 to 1.7 and a [Lac] of 8 to 10 mmol/L was reached, this HG(1.5)HL(8) state was maintained for 4 hours using the clamping technique. Approximately halfway during the HG(1.5)HL(8)-phase the octreotide infusion was stopped as the T1/2 of octreotide is longer than T^1/2 of insulin and because sustained suppression of the hypoglycemic counter response by octreotide might prolong the duration of glucose 50% support during the normoglycemia restoration phase.
During the HG-HL phase, sliding scale adjustments of insulin and glucose 50% pumps were executed.
The glucose 50% infusion rate was adjusted and eventually tapered to zero until stable normoglycemia was achieved.

[2] = cited from earlier work

SMILES	arterial pH and sodium levels throughout the experiment ([1]; 30 kg pig, 40% HLa via veno-venous extracorporeal circuit, [Lac] 8 mmol/L, [Glu] ~1.5 mmol/L for 4 h, with insulin, glucose 50%, octreotide, labetalol, metformin)	hemodynamic instabilities, electrocardiographic or rhythm disturbances ([1]; 30 kg pig, HG(1.5)HL(8) state for 4 h)	time after end of the HG-HL-phase until normoglycemia without exogenous glucose or lactate support ([1]; 30 kg pig, after 4 h HG(1.5)HL(8)) [min]	metabolic alkalosis or hypernatremia on administration of high doses ([1]; high doses of HLa instead of NaLa)	side effects of intravenous administration of large amounts [2]
CC(O)C(=O)O (centres unmarked) [HLa, lactic acid]	maintained within the desired range	no hemodynamic instabilities, electrocardiographic or rhythm disturbances were observed	90	did not lead to metabolic alkalosis or hypernatremia	
CC(O)C(=O)[O-].[Na+] (centres unmarked) [sodium lactate]					systemic metabolic alkalosis and hypernatremia
